What all share (assay): Pre-emergent herbicidal activity (Table A)
Common to all, as to format: in vivo

In one assay the test system is Barnyardgrass. The settings on record: Echinochloa crus-galli, pre-emergence, Bygr, 11.2 kg/ha, 10-14 days, read-out: herbicidal rating (% inhibition). The essentials:
(§1)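 Seeds or vegetative propagules were set on topsoil compacted to 0.95 to 1.27 cm below the pan rim, then covered with soil thoroughly mixed with a known amount of test compound in acetone or water carrier. Ratings follow a scale of percent inhibition per species.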

In the next assay the test system is Downy Brome. The settings on record: Bromus tectorum, pre-emergence, Dobr, 11.2 kg/ha, 10-14 days, read-out: herbicidal rating (% inhibition). The essentials: as §1
The test system of the next assay is Quackgrass. The following applies: pre-emergence, Rhqg, 11.2 kg/ha, 10-14 days, read-out: herbicidal rating (% inhibition). The method, boiled down: as §1
The subject of another assay is Velvetleaf. The following applies: Abutilon theophrasti, pre-emergence, Vele, 11.2 kg/ha, 10-14 days, read-out: herbicidal rating (% inhibition). The method, boiled down: as §1
Another assay deals with Morningglory. The settings on record: Ipomoea, pre-emergence, Mogl, 11.2 kg/ha, 10-14 days, read-out: herbicidal rating (% inhibition). The method, boiled down: as §1
Another assay deals with Yellow Nutsedge. The settings on record: Cyperus, pre-emergence, Yens, 11.2 kg/ha, 10-14 days, read-out: herbicidal rating (% inhibition). The essentials: as §1
A further assay concerns Common Lambsquarters. The following applies: Chenopodium album, pre-emergence, Colq, 11.2 kg/ha, 10-14 days, read-out: herbicidal rating (% inhibition). The method, boiled down: as §1
In another assay the test system is Canada thistle. The settings on record: Cirsium arvense, pre-emergence, Cath, 11.2 kg/ha, 10-14 days, read-out: herbicidal rating (% inhibition). The essentials:
as §1

Another assay has as its system Rhizome Johnsongrass. The settings on record: Sorghum halepense, pre-emergence, Rhjg, 11.2 kg/ha, 10-14 days, read-out: herbicidal rating (% inhibition). The essentials:
as §1

A further assay has as its system Pennsylvania Smartweed. The settings on record: pre-emergence, Pesw, 11.2 kg/ha, 10-14 days, read-out: herbicidal rating (% inhibition). The essentials:
as §1

A further assay concerns Cocklebur. The following applies: Xanthium strumarium, pre-emergence, Cobu, 11.2 kg/ha, 10-14 days, read-out: herbicidal rating (% inhibition). The essentials: as §1

In patent US5391540A, “Substituted pyridine compounds” (Rohm and Haas Company, priority 1993, dated 1995) one finds inhibition data, which are given here for 11 compounds.

One may read the inhibition as how much of the control response was suppressed. In the case of `COC(=O)c1c(OC)nc(C(F)(F)F)c(C(=O)OC)c1C1CCC1` [Compound 48, 3,5-pyridinedicarboxylic acid, 4-cyclobuty1-2-methoxy-6-(trifluoromethyl)-, dimethyl ester], the inhibition at 11200 g/ha with Barnyardgrass, with Downy Brome, in the assay with Quackgrass, with Velvetleaf, with Morningglory and in the assay with Yellow Nutsedge was 75 to 100% in each case. Also, the inhibition at 11200 g/ha in the assay on Common Lambsquarters, in the assay with Canada thistle, in the assay with Rhizome Johnsongrass, in the assay with Pennsylvania Smartweed and in the assay on Cocklebur was 75 to 100% throughout.

As for `COC(=O)c1c(OC)nc(C(F)(F)F)c(C(=O)N2CCSCC2)c1CC(C)C` [Compound 70, 3-pyridinecarboxylic acid, 2-methoxy-4-(2-methylpropyl)-5-(4-thiomorpholinylcarbonyl)-6-(trifluoromethyl)-, methyl ester], the inhibition at 11200 g/ha with Barnyardgrass was 75 to 100%; in the assay with Downy Brome it was 50 to 74%; in the assay on Quackgrass it was 50 to 74%; with Velvetleaf it was 0 to 24%; in the assay with Morningglory, 50 to 74%; with Yellow Nutsedge, 25 to 49%. Also, the inhibition at 11200 g/ha in the assay on Common Lambsquarters was in the range of 75 to 100%; in the assay with Canada thistle it was 50 to 74%; in the assay on Rhizome Johnsongrass, 0 to 24%; in the assay on Pennsylvania Smartweed, 0 to 24%; in the assay on Cocklebur, 0 to 24%.

Consider `CCSC(=O)c1c(C(F)(F)F)nc(OC)c(C(=O)OC)c1CC(C)C` [Compound 53, 3-pyridinecarboxylic acid, 5-[(ethylthio)carbonyl]-2-methoxy-4-(2-methylpropyl)-6-(trifluoromethyl)-, methyl ester], for which the inhibition at 11200 g/ha lay within 75 to 100% in the assay on Barnyardgrass; 75 to 100% in the assay with Downy Brome; 75 to 100% in the assay with Quackgrass; 75 to 100% with Velvetleaf; 75 to 100% in the assay with Morningglory; 0 to 24% in the assay with Yellow Nutsedge. Also, the inhibition at 11200 g/ha with Common Lambsquarters fell in the range of 75 to 100%; in the assay on Canada thistle, 0 to 24%; in the assay on Rhizome Johnsongrass, 0 to 24%; in the assay with Pennsylvania Smartweed, 75 to 100%; in the assay with Cocklebur, 75 to 100%.

Consider `COC(=O)c1c(C(F)(F)F)nc(OC)c(C(=O)NCCO)c1CC(C)C` [Compound 25, 3-pyridinecarboxylic acid, 5-[[(2-hydroxyethyl)amino]carbonyl]-6-methoxy-4-(2-methylpropyl)-2-(trifluoromethyl)-, methyl ester, hydrate (1:0.2)], for which the inhibition at 11200 g/ha with Barnyardgrass, in the assay on Downy Brome, with Quackgrass, in the assay with Velvetleaf, in the assay with Morningglory and in the assay with Yellow Nutsedge was 0 to 24% in each case. The inhibition at 11200 g/ha with Common Lambsquarters, in the assay on Canada thistle, in the assay on Rhizome Johnsongrass, in the assay on Pennsylvania Smartweed and in the assay with Cocklebur was 0 to 24% in each case.

Turning to `COC(=O)c1c(C(F)(F)F)nc(OC)c(C(=O)n2cccn2)c1CC(C)C` [Compound 24, 3-pyridinecarboxylic acid, 6-methoxy-4-(2-methylpropyl)-5-(1H-pyrazo1-1-ylcarbonyl)-2-(trifluoromethyl)-, methyl ester, hydrate (1:0.3)], the inhibition at 11200 g/ha in the assay with Barnyardgrass fell in the range of 75 to 100%; in the assay on Downy Brome, 75 to 100%; with Quackgrass it was 75 to 100%; in the assay with Velvetleaf, 75 to 100%; in the assay with Morningglory, 75 to 100%; in the assay with Yellow Nutsedge, 0 to 24%. Moreover, the inhibition at 11200 g/ha in the assay on Common Lambsquarters lay in the range of 75 to 100%; with Canada thistle, 25 to 49%; in the assay on Rhizome Johnsongrass it was 75 to 100%; in the assay on Pennsylvania Smartweed, 75 to 100%; in the assay on Cocklebur it was 0 to 24%.

Take `CCOC(=O)c1c(OC)nc(C(F)(F)Cl)c(C(=O)OC)c1CC(C)C` [Compound 29, 3,5-pyridinedicarboxylic acid, 2-(chlorodifluoromethyl)-6-methoxy-4-(2-methylpropyl)-, 5-ethyl 3-methyl ester]: the inhibition at 11200 g/ha with Barnyardgrass was in the range of 75 to 100%; in the assay with Downy Brome it was 75 to 100%; in the assay with Quackgrass, 75 to 100%; in the assay on Velvetleaf, 75 to 100%; in the assay with Morningglory, 75 to 100%; in the assay with Yellow Nutsedge it was 25 to 49%. In addition, the inhibition at 11200 g/ha in the assay with Common Lambsquarters is 75 to 100%; with Canada thistle, 0 to 24%; in the assay with Rhizome Johnsongrass, 25 to 49%; in the assay with Pennsylvania Smartweed it was 75 to 100%; in the assay on Cocklebur, 0 to 24%.

For `COC(=O)c1c(OC)nc(C(F)(F)F)c(N)c1CC(C)C` [Compound 36, 3-pyridinecarboxylic acid, 5-amino-2-methoxy-4-(2-methylpropyl)-6-(trifluoromethyl)-, methyl ester], the inhibition at 11200 g/ha with Barnyardgrass fell in the range of 75 to 100%; in the assay on Downy Brome, 75 to 100%; in the assay with Quackgrass, 75 to 100%; in the assay on Velvetleaf, 50 to 74%; with Morningglory, 50 to 74%; in the assay with Yellow Nutsedge, 0 to 24%. Moreover, the inhibition at 11200 g/ha with Common Lambsquarters lay within 75 to 100%; with Canada thistle it was 25 to 49%; with Rhizome Johnsongrass, 75 to 100%; with Pennsylvania Smartweed, 75 to 100%; in the assay with Cocklebur, 0 to 24%.

For `COC(=O)c1c(OC)nc(C(F)F)c(C(=O)OC)c1CC(C)C` [Compound 31, 3,5-pyridinedicarboxylic acid, 2-(difluoromethyl)-6-methoxy-4-(2-methylpropyl)-, dimethyl ester], the inhibition at 11200 g/ha with Barnyardgrass lay in the range of 75 to 100%; with Downy Brome, 75 to 100%; with Quackgrass, 75 to 100%; in the assay with Velvetleaf it was 75 to 100%; in the assay on Morningglory, 75 to 100%; in the assay with Yellow Nutsedge, 50 to 74%. For the same compound, the inhibition at 11200 g/ha in the assay with Common Lambsquarters lay in the range of 75 to 100%; in the assay on Canada thistle, 0 to 24%; in the assay on Rhizome Johnsongrass it was 75 to 100%; with Pennsylvania Smartweed, 75 to 100%; with Cocklebur it was 0 to 24%.

As to `COC(=O)c1c(OC)nc(C(F)(F)F)c(-n2cccc2)c1CC(C)C` [Compound 15, 3-pyridinecarboxylic acid, 2-methoxy-4-(2-methylpropyl)-5-(1H-pyrro1-1-yl)-6-(trifluoromethyl)-, methyl ester], the inhibition at 11200 g/ha with Barnyardgrass lay in the range of 75 to 100%; in the assay with Downy Brome it was 75 to 100%; with Quackgrass, 75 to 100%; with Velvetleaf, 75 to 100%; with Morningglory it was 75 to 100%; with Yellow Nutsedge it was 25 to 49%. For the same compound, the inhibition at 11200 g/ha fell in the range of 75 to 100% in the assay on Common Lambsquarters; 75 to 100% with Canada thistle; 75 to 100% with Rhizome Johnsongrass; 75 to 100% in the assay on Pennsylvania Smartweed; 0 to 24% in the assay on Cocklebur.

On to `COC(=O)c1c(OC)nc(C(F)(F)F)c(CO)c1CC(C)C` [Compound 40, 3-pyridinecarboxylic acid, 5-(hydroxymethyl)-2-methoxy-4-(2-methylpropyl)-6-(trifluoromethyl)-, methyl ester], for which the inhibition at 11200 g/ha in the assay on Barnyardgrass was in the range of 75 to 100%; in the assay with Downy Brome, 75 to 100%; in the assay on Quackgrass, 75 to 100%; in the assay with Velvetleaf it was 25 to 49%; with Morningglory, 0 to 24%; with Yellow Nutsedge, 0 to 24%. Also, the inhibition at 11200 g/ha fell in the range of 75 to 100% in the assay with Common Lambsquarters; 0 to 24% in the assay on Canada thistle; 0 to 24% in the assay with Rhizome Johnsongrass; 75 to 100% in the assay with Pennsylvania Smartweed; 0 to 24% in the assay on Cocklebur.

`COC(=O)c1c(OC)nc(C(F)(F)F)c(C(=O)N2CCCCCC2)c1CC(C)C` [Compound 73, 3-pyridinecarboxylic acid, 5-[(hexahydro-1H-azepin-1-yl)carbonyl]-2-methoxy-4-(2-methylpropyl)-6-(trifluoromethyl)-, methyl ester]: the inhibition at 11200 g/ha in the assay with Barnyardgrass lay in the range of 75 to 100%; in the assay with Downy Brome, 75 to 100%; in the assay on Quackgrass, 75 to 100%; with Velvetleaf, 25 to 49%; in the assay with Morningglory, 50 to 74%; with Yellow Nutsedge it was 0 to 24%. The inhibition at 11200 g/ha with Common Lambsquarters lay in the range of 75 to 100%; in the assay on Canada thistle, 75 to 100%; with Rhizome Johnsongrass, 75 to 100%; in the assay with Pennsylvania Smartweed, 75 to 100%; with Cocklebur it was 0 to 24%.
